This is an account of results in patent US20130090476A1, “Thiazolylpiperidine Derivatives as Fungicides” (priority 2009, published 2013).

Read-outs that look alike come from different tables or passages of the source. Marks after values point to notes of the source that are not given here. Bounds are passed on as bounds.

A short description of data set [1]: logP determination by HPLC (EEC Directive 79/831 Annex V.A8), LC-MS.
For a further data set, the system named is Phytophthora infestans. The data set can be described thus: whole plant or invertebrate. In kind it is in vivo. Conditions: in Solanum lycopersicum, 168 h, read-out: efficacy.
For data set [2] the following is noted: pH 2.7.
Where [3] appears, read: pH 2.7, log P (pH2.7), pH 2.7, value given in the preparation text.
Where [4] appears, read: pH 2.7, logP, * acidic range, pH 2.7, 0.1% aqueous formic acid/acetonitrile.
Where [5] appears, read: * acidic range, pH 2.7, 0.1% aqueous formic acid/acetonitrile.

In the case of `Cc1cc(C(F)(F)F)nn1CC(=O)N1CCC(c2nc(CSc3cccc4ccccc34)cs2)CC1` [Compound I-1, 2-[5-Methyl-3-(trifluoromethyl)-1H-pyrazol-1-yl]-1-(4-{4-[(1-naphthylsulphanyl)methyl]-1,3-thiazol-2-yl}piperidin-1-yl)ethanone], the chromatographic logP in data set [1] (setting [3]) and in data set [1] (setting [4]) was 4.33 throughout. Moreover, the pest or weed control at 500 ppm in the data set on Phytophthora infestans is no less than 70%.
As for `Cc1cc(C(F)(F)F)nn1CC(=O)N1CCC(c2nc(CSC34CC5CC(CC(C5)C3)C4)cs2)CC1` [Compound I-2, 1-[4-(4-{[(3S,5S,7S)-Adamantan-1-ylsulphanyl]methyl}-1,3-thiazol-2-yl)piperidin-1-yl]-2-[5-methyl-3-(trifluoromethyl)-1H-pyrazol-1-yl]ethanone], in data set [2], the “log P (pH2.7)” value came out at 5.21 and the logP was 5.21*.
As to `Cc1cc(C(F)(F)F)nn1CC(=O)N1CCC(c2nc(CSC3CCCCC3)cs2)CC1` [Compound I-3, 1-(4-{4-[(Cyclohexylsulphanyl)methyl]-1,3-thiazol-2-yl}piperidin-1-yl)-2-[5-methyl-3-(trifluoromethyl)-1H-pyrazol-1-yl]ethanone], the chromatographic logP in data set [1] (setting [3]) and in data set [1] (setting [4]) was 4.3 throughout. Besides, in the data set with Phytophthora infestans, the pest or weed control at 500 ppm is no less than 70%.
`Cc1cc(C(F)(F)F)nn1CC(=O)N1CCC(c2nc(CS(=O)(=O)C34CC5CC(CC(C5)C3)C4)cs2)CC1` [Compound I-6, 1-[4-(4-{[(3S,5S,7S)-Adamantan-1-ylsulphonyl]methyl}-1,3-thiazol-2-yl)piperidin-1-yl]-2-[5-methyl-3-(trifluoromethyl)-1H-pyrazol-1-yl]ethanone]: in data set [2], the “log P (pH2.7)” value amounted to 3.42 and the logP is 3.4*.
Consider `Cc1cc(C(F)(F)F)nn1CC(=O)N1CCC(c2nc(CS(=O)(=O)C3CCCCC3)cs2)CC1` [Compound I-7, 1-(4-{4-[(Cyclohexylsulphonyl)methyl]-1,3-thiazol-2-yl}piperidin-1-yl)-2-[5-methyl-3-(trifluoromethyl)-1H-pyrazol-1-yl]ethanone], for which the chromatographic logP was 2.9 in data set [1] (setting [3]); 2.9 in data set [1] (setting [4]); 2.87 in data set [1] (pH 7.8, logP, ** neutral range, pH 7.8, 0.001 molar aqueous ammonium bicarbonate/acetonitrile). Further, the pest or weed control at 500 ppm with Phytophthora infestans was no less than 70%.
Take `Cc1cc(C(F)(F)F)nn1CC(=O)N1CCC(c2nc(CS(=O)(=O)c3nnnn3-c3ccccc3)cs2)CC1` [Compound I-8, 2-[5-Methyl-3-(trifluoromethyl)-1H-pyrazol-1-yl]-1-[4-(4-{[(1-phenyl-1H-tetrazol-5-yl)sulphonyl]methyl}-1,3-thiazol-2-yl)piperidin-1-yl]ethanone]: the values for the chromatographic logP in data set [1] (setting [3]) and in data set [1] (setting [4]) were 3.1 and 3.07, respectively. The pest or weed control at 500 ppm in the data set on Phytophthora infestans was no less than 70%.
For `Cc1cc(C(F)(F)F)nn1CC(=O)N1CCC(c2nc(CS(=O)(=O)c3cccc4cccnc34)cs2)CC1` [Compound I-9, 1-(4-{4-[(Quinolin-8-ylsulphonyl)methyl]-1,3-thiazol-2-yl}piperidin-1-yl)-2-[5-methyl-3-(trifluoromethyl)-1H-pyrazol-1-yl]ethanone] the same measures were 2.63, 2.63 and no less than 70%.
Consider `Cc1cc(C(F)(F)F)nn1CC(=O)N1CCC(c2nc(CS(=O)(=O)c3cccc4ccccc34)cs2)CC1` [Compound I-10, 2-[5-Methyl-3-(trifluoromethyl)-1H-pyrazol-1-yl]-1-(4-{4-[(1-naphthylsulphonyl)methyl]-1,3-thiazol-2-yl}piperidin-1-yl)ethanone], for which the chromatographic logP in data set [1] (setting [3]) was determined as 3.21; in data set [1] (setting [4]), 3.19. Besides, the pest or weed control at 500 ppm in the data set on Phytophthora infestans was no less than 70%.
With `Cc1ccc([N+](=O)[O-])cc1NC(=O)N1CCC(c2nc(CSc3nnnn3-c3ccccc3)cs2)CC1` [Compound I-18], the logP in data set [2] is reported as 3.09*.
`Cc1ccc(Cl)cc1NC(=O)N1CCC(c2nc(CSc3nnnn3-c3ccccc3)cs2)CC1` [Compound I-24]: the logP in data set [2] is recorded as 3.43*.
Same read-out and setting: the value for `O=C(Cn1nc(C(F)F)cc1C(F)F)N1CCC(c2nc(CS(=O)(=O)c3nnnn3-c3ccccc3)cs2)CC1` [Compound I-29] was 2.97*.
On to `COc1ccc(C)cc1NC(=O)N1CCC(c2nc(CSc3nnnn3-c3ccccc3)cs2)CC1` [Compound I-33], for which the logP in data set [2] is reported as 3.5*.
Take `O=C(Cn1nc(C(F)(F)F)cc1C(F)(F)F)N1CCC(c2nc(CSc3nnnn3-c3ccccc3)cs2)CC1` [Compound I-34]: the logP in data set [2] was 3.8*.
On the same count and under the same terms, the value for `O=C(Cn1nc(C(F)F)cc1C(F)F)N1CCC(c2nc(CSc3nnnn3-c3ccccc3)cs2)CC1` [Compound I-35] was 3.11*; that for `O=C(Cc1cc(Cl)ccc1Cl)N1CCC(c2nc(CSc3nnnn3-c3ccccc3)cs2)CC1` [Compound I-46] was 3.8*.
Still for that read-out and setting: the value for `O=C(Nc1cc(Cl)ccc1Cl)N1CCC(c2nc(CSc3nnnn3-c3ccccc3)cs2)CC1` [Compound I-49] was 3.95*.
For the compound `O=C(Cn1nc(C(F)F)cc1C(F)F)N1CCC(c2nc(CSC3=NOC(c4ccccc4)C3)cs2)CC1` (stereo not shown) [Compound I-58, 2-[3,5-Bis(difluoromethyl)-1H-pyrazol-1-yl]-1-{4-[4-({[5-phenyl-4,5-dihydro-1,2-oxazol-3-yl]sulphanyl}methyl)-1,3-thiazol-2-yl]piperidin-1-yl}ethanone], the chromatographic logP in data set [1] (setting [3]) and in data set [1] (setting [4]) was 3.4 each time.
With `Cc1ccc(F)c(NC(=O)N2CCC(c3nc(CSc4nnnn4-c4ccccc4)cs3)CC2)c1` [Compound I-60], the logP in data set [2] is listed as 3.28*.
Take `Cc1cc(C(F)(F)F)nn1CC(=O)N1CCC(c2nc(CSc3nccn3-c3ccccc3)cs2)CC1` [Compound I-61]: the logP in data set [1] (setting [5]) was 2.22*.
On the same count and under the same terms, with `Cc1ccc(F)cc1NC(=O)N1CCC(c2nc(CSc3nnnn3-c3ccccc3)cs2)CC1` [Compound I-63] the figure was 3.2*; with `O=C(Cn1nc(C(F)F)cc1C(F)F)N1CCC(c2nc(CSc3nccn3-c3ccccc3)cs2)CC1` [Compound I-65], 2.13*; with `Fc1ccc(Br)c(NC(=S)N2CCC(c3nc(CSc4nnnn4-c4ccccc4)cs3)CC2)c1` [Compound I-66], 3.46*.
The same measure, in the same setting: with `Cc1cc(C(F)(F)F)nn1CC(=O)N1CCC(c2nc(CSc3ccccc3-c3ccccc3)cs2)CC1` [Compound I-69] the figure was 4.49*.
In the case of `Cc1ccc(C)c(NC(=O)N2CCC(c3nc(CSC45CC6CC(CC(C6)C4)C5)cs3)CC2)c1` [Compound I-72], in data set [2], the logP was 5.38*.
For the compound `Cc1noc(C)c1NC(=O)N1CCC(c2nc(CSc3nnnn3-c3ccccc3)cs2)CC1` [Compound I-75], the logP in data set [1] (setting [5]) was 2.22*.
`O=C(Nc1cc(C(F)(F)F)ccc1Cl)N1CCC(c2nc(CSc3nnnn3-c3ccccc3)cs2)CC1` [Compound I-76]: the logP in data set [1] (setting [5]) was 4.2*.
Consider `COc1ccc(Cl)cc1NC(=O)N1CCC(c2nc(CSc3nnnn3-c3ccccc3)cs2)CC1` [Compound I-79], for which the logP in data set [1] (setting [5]) is 3.8*.
As for `Cc1ccc(C)c(NC(=O)N2CCC(c3nc(CSc4nnnn4-c4ccccc4)cs3)CC2)c1` [Compound I-84], the logP in data set [2] is reported as 3.26*.
For `Cc1ccc(Cl)c(NC(=O)N2CCC(c3nc(CSc4nnnn4-c4ccccc4)cs3)CC2)c1` [Compound I-87], the logP in data set [2] is on record as 3.72*.
The same measure, in the same setting: the value for `Cc1ccc(C)c(NC(=S)N2CCC(c3nc(CSc4nnnn4-c4ccccc4)cs3)CC2)c1` [Compound I-98] was 3.52*.
On to `Cc1noc(C)c1NC(=S)N1CCC(c2nc(CSc3nnnn3-c3ccccc3)cs2)CC1` [Compound I-99], for which the logP in data set [1] (setting [5]) was 2.7*.
Take `ClC1=NOC(c2ccccc2)C1` (stereo not shown) [Compound X-1, 3-Chloro-5-phenyl-4,5-dihydro-1,2-oxazole]: in data set [1] (setting [3]), the chromatographic logP was found to be 2.36.
Compound `CC(C)(C)OC(=O)N1CCC(c2nc(CSc3cccc4ccccc34)cs2)CC1` [IV-1, tert-Butyl 4-{4-[(1-naphthylsulphanyl)methyl]-1,3-thiazol-2-yl}piperidine-1-carboxylate] yielded a chromatographic logP in data set [1] (setting [3]) of 5.33.
Still for that read-out and setting: the value for `CC(C)(C)OC(=O)N1CCC(c2nc(CSC34CC5CC(CC(C5)C3)C4)cs2)CC1` [IV-2, tert-Butyl 4-(4-{[(3S,5S,7S)-adamantan-1-ylsulphanyl]methyl}-1,3-thiazol-2-yl)piperidine-1-carboxylate] was 6.66.
The same measure, in the same setting: the value for `CC(C)(C)OC(=O)N1CCC(c2nc(CSC3CCCCC3)cs2)CC1` [IV-3, tert-Butyl 4-{4-[(cyclohexylsulphanyl)methyl]-1,3-thiazol-2-yl}piperidine-1-carboxylate] was 5.45; that for `CC(C)(C)OC(=O)N1CCC(c2nc(CSc3nnnn3-c3ccccc3)cs2)CC1` [IV-4, tert-Butyl 4-(4-{[(1-phenyl-1H-tetrazol-5-yl)sulphanyl]methyl}-1,3-thiazol-2-yl)piperidine-1-carboxylate] was 3.91.
On the same count and under the same terms, with `CC(C)(C)OC(=O)N1CCC(c2nc(CSc3cccc4cccnc34)cs2)CC1` [IV-5, tert-Butyl 4-{4-[(quinolin-8-ylsulphanyl)methyl]-1,3-thiazol-2-yl}piperidine-1-carboxylate] the figure was 3.71; with `CC(C)(C)OC(=O)N1CCC(c2nc(CSC3=NOC(c4ccccc4)C3)cs2)CC1` (stereo not shown) [IV-6, tert-Butyl 4-[4-({[5-phenyl-4,5-dihydro-1,2-oxazol-3-yl]sulphanyl}methyl)-1,3-thiazol-2-yl]piperidine-1-carboxylate], 4.25; with `CC(C)(C)OC(=O)N1CCC(c2nc(CI)cs2)CC1` [VI-1, tert-Butyl 4-[4-(iodomethyl)-1,3-thiazol-2-yl]piperidine-1-carboxylate], 3.71.

By chromatographic logP is commonly meant lipophilicity estimated from chromatographic retention.
